Results on five compounds are retold here after patent US11130793B2, “GLP-1/GLP-2 dual agonists” (Zealand Pharma A/S, priority 2016, dated 2021).

For one data set, the target named is T1, human GLP-1 receptor (Homo sapiens, UniProt P43220).
T1 construct: expressed in transfected cells
Put plainly: GLP-1 receptor potency assay (cAMP AlphaScreen, HEK293 cells stably expressing GLP-1R). The class given is cell-based. To be noted: cAMP response, HEK293 cells expressing human GLP-1R; read-out: EC50 GLP-1. The method in brief: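 A HEK293 clone stably expressing cloned human GLP-1R (G418-selected) was stimulated with compound. Intracellular cAMP was measured by AlphaScreen. Responses were normalized to positive and vehicle controls, and EC50 and maximal response were fitted by 4-parameter logistic regression.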
In general terms: Alpha assays give light when donor and acceptor beads are brought close together.

For a further data set, the target named is T2, human GLP-2 receptor (Homo sapiens, UniProt O95838, D470N).
T2 sequence (O95838 1-553 D470N): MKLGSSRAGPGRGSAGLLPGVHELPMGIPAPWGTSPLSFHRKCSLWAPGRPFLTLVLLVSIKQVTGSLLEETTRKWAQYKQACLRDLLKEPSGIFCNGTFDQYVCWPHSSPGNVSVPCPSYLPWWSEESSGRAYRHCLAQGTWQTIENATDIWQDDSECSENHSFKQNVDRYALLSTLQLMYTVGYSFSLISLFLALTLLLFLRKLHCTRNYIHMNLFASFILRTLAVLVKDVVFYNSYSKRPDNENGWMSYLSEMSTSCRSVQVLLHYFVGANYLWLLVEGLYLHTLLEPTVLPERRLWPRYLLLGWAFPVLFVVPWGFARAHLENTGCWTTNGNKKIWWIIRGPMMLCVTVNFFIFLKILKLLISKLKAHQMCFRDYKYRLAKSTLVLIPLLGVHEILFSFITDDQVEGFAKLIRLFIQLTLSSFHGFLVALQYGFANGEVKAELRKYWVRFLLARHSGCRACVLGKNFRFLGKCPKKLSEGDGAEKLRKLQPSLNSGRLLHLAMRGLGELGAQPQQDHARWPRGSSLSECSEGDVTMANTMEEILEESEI
The data set can be described thus: GLP-2 receptor potency assay (cAMP AlphaScreen, HEK293 cells stably expressing GLP-2R). Type of data set: cell-based. The note with it: cAMP response, HEK293 cells expressing human GLP-2R. The method in brief: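 HEK293 cells stably expressing human GLP-2R (G418-selected clone); intracellular cAMP measured by AlphaScreen. Responses normalized to positive and vehicle controls; EC50 and maximal response from 4-parameter logistic fit.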

A short description of data set [1]: Solubility assessment by turbidity absorbance at 325 nm. The class given is physicochemical. To be noted: 1 mg/ml peptide. The procedure:
A stock solution of the test peptide (2 mg/ml; determined from the weighed amount of peptide) in demineralized water adjusted to pH 2.5 with HCl was prepared, and aliquots were diluted 1:1 in 100 mM acetate buffer (pH 4.0 and pH 5.0), 100 mM histidine buffer (pH 6.0 and pH 7.0) and 100 mM phosphate buffer (pH 6.0, pH 7.0 and pH7.5), respectively, and loaded in a standard flat-bottom, non-sterile 96-well UV Microplate. The absorbance of samples (single samples, n=1) at 280 and 325 nm was measured in an absorbance-based plate reader, which was preheated to ambient temperature (typically 25° C.).

Where [2] appears, read: 100 mM acetate buffer pH 4.0, ambient temperature, read-out: Solubility, Acetate buffer pH 4.
The mark [3] stands for this setting: 100 mM acetate buffer pH 5.0, ambient temperature, read-out: Solubility, Acetate buffer pH 5.
Setting [4] is: 100 mM histidine buffer pH 6.0, ambient temperature, read-out: Solubility, Histidine buffer pH 6.
The mark [5] stands for this setting: 100 mM histidine buffer pH 7.0, ambient temperature, read-out: Solubility, Histidine buffer pH 7.
[6] abbreviates: 100 mM phosphate buffer pH 6.0, ambient temperature, read-out: Solubility, Phosphate buffer pH 6.
Setting [7] is: 100 mM phosphate buffer pH 7.0, ambient temperature, read-out: Solubility, Phosphate buffer pH 7.
The mark [8] stands for this setting: 100 mM phosphate buffer pH 7.5, ambient temperature, read-out: Solubility, Phosphate buffer pH 7.5.

Where two headings read alike, the source gives them in different places. Square brackets hold non-standard residues; d marks the D form. Peptide text beside a SMILES is read from it. Aib = CC(C)(N)C(=O)O Some results are limits rather than exact numbers.

A word on the EC50: it is the concentration giving half of the maximal effect. A word on the solubility: it is the concentration that dissolves in the medium under given conditions.

T1 sequence (P43220 24-463): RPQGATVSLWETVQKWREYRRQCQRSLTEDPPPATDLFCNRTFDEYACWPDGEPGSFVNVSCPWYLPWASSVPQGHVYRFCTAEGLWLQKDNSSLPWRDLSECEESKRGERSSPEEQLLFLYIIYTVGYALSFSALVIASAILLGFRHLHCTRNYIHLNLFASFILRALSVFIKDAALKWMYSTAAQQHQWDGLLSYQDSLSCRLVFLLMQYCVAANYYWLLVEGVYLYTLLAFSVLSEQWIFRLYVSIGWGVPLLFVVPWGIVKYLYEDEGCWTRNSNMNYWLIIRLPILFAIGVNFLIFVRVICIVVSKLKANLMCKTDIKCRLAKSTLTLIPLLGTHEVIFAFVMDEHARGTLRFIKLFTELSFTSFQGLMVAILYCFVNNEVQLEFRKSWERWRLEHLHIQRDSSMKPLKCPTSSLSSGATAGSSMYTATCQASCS

Take `CC[C@H](C)[C@H](NC(=O)[C@H](Cc1ccccc1)NC(=O)[C@H](CC(=O)O)NC(=O)[C@H](CCCNC(=N)N)NC(=O)[C@H](C)NC(=O)[C@H](C)NC(=O)[C@H](CCC(N)=O)NC(=O)[C@H](CCC(=O)O)NC(=O)[C@H](CC(=O)O)NC(=O)[C@H](CC(C)C)NC(=O)[C@@H](NC(=O)[C@@H](NC(=O)[C@H](C)NC(=O)[C@H](CC(C)C)NC(=O)[C@H](CCC(=O)O)NC(=O)[C@H](CO)NC(=O)[C@@H](NC(=O)[C@H](Cc1ccccc1)NC(=O)[C@H](CO)NC(=O)CNC(=O)[C@H](CCC(=O)O)NC(=O)C(C)(C)NC(=O)[C@@H](N)Cc1c[nH]cn1)[C@@H](C)O)[C@@H](C)O)[C@@H](C)CC)C(=O)N[C@@H](C)C(=O)N[C@@H](Cc1c[nH]c2ccccc12)C(=O)N[C@@H](CC(C)C)C(=O)N[C@H](C(=O)N[C@@H](CC(C)C)C(=O)N[C@@H](Cc1c[nH]cn1)C(=O)N[C@@H](CCCCN)C(=O)N[C@H](C(=O)N[C@H](C(=O)N[C@@H](CC(=O)O)C(=O)O)[C@@H](C)O)[C@@H](C)CC)[C@@H](C)CC` [Compound 8] (H-H[Aib]EGSFTSELATILDEQAARDFIAWLILHKITD-OH): the EC50 is 0.021 nM on human GLP-1 receptor and 0.084 nM at human GLP-2 receptor. Further, the solubility is no less than 1000 µg/mL in data set [1] (setting [2]); less than 1000 µg/mL in data set [1] (setting [3]); less than 1000 µg/mL in data set [1] (setting [4]); no less than 1000 µg/mL in data set [1] (setting [5]); less than 1000 µg/mL in data set [1] (setting [6]); no less than 1000 µg/mL in data set [1] (setting [7]). In addition, the solubility in data set [1] (setting [8]) is no less than 1000 µg/mL.

`CC[C@H](C)[C@H](NC(=O)[C@H](Cc1ccccc1)NC(=O)[C@H](CC(=O)O)NC(=O)[C@H](CCCNC(=N)N)NC(=O)[C@H](C)NC(=O)[C@H](C)NC(=O)[C@H](CCC(N)=O)NC(=O)[C@H](CCC(=O)O)NC(=O)[C@H](CC(=O)O)NC(=O)[C@H](CC(C)C)NC(=O)[C@@H](NC(=O)[C@@H](NC(=O)[C@H](C)NC(=O)[C@H](CC(C)C)NC(=O)[C@H](CCC(=O)O)NC(=O)[C@H](CO)NC(=O)[C@@H](NC(=O)[C@H](Cc1ccccc1)NC(=O)[C@H](CO)NC(=O)CNC(=O)[C@H](CCC(=O)O)NC(=O)C(C)(C)NC(=O)[C@@H](N)Cc1c[nH]cn1)[C@@H](C)O)[C@@H](C)O)[C@@H](C)CC)C(=O)N[C@@H](C)C(=O)N[C@@H](Cc1c[nH]c2ccccc12)C(=O)N[C@@H](CC(C)C)C(=O)N[C@H](C(=O)N[C@@H](CCC(=O)O)C(=O)N[C@@H](Cc1c[nH]cn1)C(=O)N[C@@H](CCCCN)C(=O)N[C@H](C(=O)N[C@H](C(=O)N[C@@H](CC(=O)O)C(=O)O)[C@@H](C)O)[C@@H](C)CC)[C@@H](C)CC` [Compound 4] (H-H[Aib]EGSFTSELATILDEQAARDFIAWLIEHKITD-OH): the results for the EC50 at human GLP-1 receptor and at human GLP-2 receptor were 0.015 nM and 0.044 nM, respectively. Also, the solubility was no less than 1000 µg/mL in data set [1] (setting [2]); less than 1000 µg/mL in data set [1] (setting [3]); no less than 1000 µg/mL in data set [1] (setting [4]); no less than 1000 µg/mL in data set [1] (setting [5]); no less than 1000 µg/mL in data set [1] (setting [6]); no less than 1000 µg/mL in data set [1] (setting [7]). For the same compound, the solubility in data set [1] (setting [8]) is no less than 1000 µg/mL.

For `CC[C@H](C)[C@H](NC(=O)[C@H](Cc1ccccc1)NC(=O)[C@H](CC(=O)O)NC(=O)[C@H](CCCNC(=N)N)NC(=O)[C@H](C)NC(=O)[C@H](C)NC(=O)[C@H](CCC(N)=O)NC(=O)[C@H](CCC(=O)O)NC(=O)[C@H](CC(=O)O)NC(=O)[C@H](CC(C)C)NC(=O)[C@@H](NC(=O)[C@@H](NC(=O)[C@H](C)NC(=O)[C@H](CC(C)C)NC(=O)[C@H](CCC(=O)O)NC(=O)[C@H](CO)NC(=O)[C@@H](NC(=O)[C@H](Cc1ccccc1)NC(=O)[C@H](CO)NC(=O)CNC(=O)[C@H](CCC(=O)O)NC(=O)C(C)(C)NC(=O)[C@@H](N)Cc1c[nH]cn1)[C@@H](C)O)[C@@H](C)O)[C@@H](C)CC)C(=O)N[C@@H](C)C(=O)N[C@@H](Cc1c[nH]c2ccccc12)C(=O)N[C@@H](CC(C)C)C(=O)N[C@H](C(=O)N[C@@H](Cc1ccc(O)cc1)C(=O)N[C@@H](Cc1c[nH]cn1)C(=O)N[C@@H](CCCCN)C(=O)N[C@H](C(=O)N[C@H](C(=O)N[C@@H](CC(=O)O)C(=O)O)[C@@H](C)O)[C@@H](C)CC)[C@@H](C)CC` [Compound 7] (H-H[Aib]EGSFTSELATILDEQAARDFIAWLIYHKITD-OH), the EC50 on human GLP-1 receptor came to 0.017 nM; on human GLP-2 receptor, 0.11 nM. Besides, the solubility was no less than 1000 µg/mL in data set [1] (setting [2]); less than 1000 µg/mL in data set [1] (setting [3]); less than 1000 µg/mL in data set [1] (setting [4]); no less than 1000 µg/mL in data set [1] (setting [5]); less than 1000 µg/mL in data set [1] (setting [6]); no less than 1000 µg/mL in data set [1] (setting [7]). Also, the solubility in data set [1] (setting [8]) is no less than 1000 µg/mL.

In the case of `CC[C@H](C)[C@H](NC(=O)[C@H](CC(C)C)NC(=O)[C@H](Cc1c[nH]c2ccccc12)NC(=O)[C@H](C)NC(=O)[C@@H](NC(=O)[C@H](Cc1ccccc1)NC(=O)[C@H](CC(=O)O)NC(=O)[C@H](CCCNC(=N)N)NC(=O)[C@H](C)NC(=O)[C@H](C)NC(=O)[C@H](CCC(N)=O)NC(=O)[C@H](CCC(=O)O)NC(=O)[C@H](CC(=O)O)NC(=O)[C@H](CC(C)C)NC(=O)[C@@H](NC(=O)[C@@H](NC(=O)[C@H](C)NC(=O)[C@H](CC(C)C)NC(=O)[C@H](CCC(=O)O)NC(=O)[C@H](CO)NC(=O)[C@@H](NC(=O)[C@H](Cc1ccccc1)NC(=O)[C@@H](NC(=O)CNC(=O)[C@H](CCC(=O)O)NC(=O)C(C)(C)NC(=O)[C@@H](N)Cc1c[nH]cn1)[C@@H](C)O)[C@@H](C)O)[C@@H](C)O)[C@@H](C)CC)[C@@H](C)CC)C(=O)N[C@@H](C)C(=O)N[C@@H](Cc1c[nH]cn1)C(=O)N[C@@H](CCCCN)C(=O)N[C@H](C(=O)N[C@H](C(=O)N[C@@H](CC(=O)O)C(=O)O)[C@@H](C)O)[C@@H](C)CC` [Compound 3] (H-H[Aib]EGTFTSELATILDEQAARDFIAWLIAHKITD-OH), the EC50 at human GLP-1 receptor was 0.0074 nM; on human GLP-2 receptor, 0.036 nM. The solubility in data set [1] (setting [2]) was no less than 1000 µg/mL; in data set [1] (setting [3]), less than 1000 µg/mL; in data set [1] (setting [4]), no less than 1000 µg/mL; in data set [1] (setting [5]) it was no less than 1000 µg/mL; in data set [1] (setting [6]), no less than 1000 µg/mL; in data set [1] (setting [7]), no less than 1000 µg/mL. Also, the solubility in data set [1] (setting [8]) is no less than 1000 µg/mL.

Consider `CC[C@H](C)[C@H](NC(=O)[C@H](Cc1ccccc1)NC(=O)[C@H](CC(=O)O)NC(=O)[C@H](CCCNC(=N)N)NC(=O)[C@H](C)NC(=O)[C@H](C)NC(=O)[C@H](CCC(N)=O)NC(=O)[C@H](CCC(=O)O)NC(=O)[C@H](CC(=O)O)NC(=O)[C@H](CC(C)C)NC(=O)[C@@H](NC(=O)[C@@H](NC(=O)[C@H](C)NC(=O)[C@H](CC(C)C)NC(=O)[C@H](CCC(=O)O)NC(=O)[C@H](CO)NC(=O)[C@@H](NC(=O)[C@H](Cc1ccccc1)NC(=O)[C@H](CO)NC(=O)CNC(=O)[C@H](CCC(=O)O)NC(=O)C(C)(C)NC(=O)[C@@H](N)Cc1c[nH]cn1)[C@@H](C)O)[C@@H](C)O)[C@@H](C)CC)C(=O)N[C@@H](C)C(=O)N[C@@H](Cc1c[nH]c2ccccc12)C(=O)N[C@@H](CC(C)C)C(=O)N[C@H](C(=O)N[C@@H](Cc1c[nH]cn1)C(=O)N[C@@H](Cc1c[nH]cn1)C(=O)N[C@@H](CCCCN)C(=O)N[C@H](C(=O)N[C@H](C(=O)N[C@@H](CC(=O)O)C(=O)O)[C@@H](C)O)[C@@H](C)CC)[C@@H](C)CC` [Compound 6] (H-H[Aib]EGSFTSELATILDEQAARDFIAWLIHHKITD-OH), for which the EC50 on human GLP-1 receptor was determined as 0.014 nM; on human GLP-2 receptor, 0.047 nM. The solubility in data set [1] (setting [2]) was no less than 1000 µg/mL; in data set [1] (setting [3]), less than 1000 µg/mL; in data set [1] (setting [4]), less than 1000 µg/mL; in data set [1] (setting [5]), no less than 1000 µg/mL; in data set [1] (setting [6]), less than 1000 µg/mL; in data set [1] (setting [7]), no less than 1000 µg/mL. Also, the solubility in data set [1] (setting [8]) is less than 1000 µg/mL.
